Results reported in patent publication US10730849B2, “Benzo[b]thiophene compounds as STING agonists” (MERCK SHARP & DOHME CORP., priority 2016, dated 2020).
pEC50: −log10 of the molar value.

Key:
THP1 cells = test: IFN-β secretion in THP1 cell culture (5 h); assay type: cell-based, human; conditions: relative to 30 uM cGAMP
Method: The ability of compounds to stimulate the secretion of interferon-beta from THP1 cells was measured using a human IFN-3 AlphaLISA kit (Perkin Elmer, Cat. No. AL265F). The basic protocol is as follows:
The cell viability and count was ascertained using a Beckman Coulter V-Cell XR cell counter. The cells suspension was centrifuged at 200×g for 5 min at RT. Cells were resuspended to a density of 0.8×10^6/mL in 37° C. assay medium. Subsequent liquid transfers were performed using either a Matrix electronic multichannel pipette or an Agilent Bravo Automated Liquid Handling Platform.
The assay was started by dispensing 40 μL of the previously prepared cell suspension into the wells of the plate containing compounds. After 5 h incubation at 37° C., 5% CO2 in a humidified atmosphere, the plate of cells and compounds was centrifuged at 200×g for 5 min at RT. […] To these supernatant-containing wells was added 10 μL of 5× Anti-Analyte Acceptor beads ([…] of AlphaLISA HiBlock Buffer) and incubated for 30 min at RT while shaking on an orbital plate shaker. To each well was added 10 μL of 5× Biotinylated Antibody Anti-analyte (5 nM in AlphaLISA HiBlock Buffer) and incubated on an orbital plate shaker for 60 min at RT or overnight at 4° C. To each well was added 25 μL of 2× SA-Donor beads ([…] in AlphaLISA HiBlock Buffer) and incubated for 30-45 min at RT in the dark while shaking on an orbital plate shaker. The plate was then read on a Perkin Elmer Envision (λex=680 nm, […]). The percent effect of the AlphaLISA signal at each compound concentration was calculated based on 30 uM cGAMP positive controls and 0.3% DMSO negative controls. The plot of percent effect versus the log of compound concentration was fit with a 4-parameter concentration response equation to calculate EC50 values.
Compounds of the disclosure were evaluated for IFN-3 secretion in THP1 cell culture as described above.

full-length HAQ STING = full-length HAQ STING (Homo sapiens (Human), UniProt Q86WV6, G230A/H232R/R293Q/R71H); test: 3H-cGAMP filtration binding assay (HAQ STING); conditions: competition with tritiated cGAMP, HAQ STING membrane
full-length HAQ STING, sequence (Q86WV6 other isoform, or with tags, fused parts or gaps, stated change not applied): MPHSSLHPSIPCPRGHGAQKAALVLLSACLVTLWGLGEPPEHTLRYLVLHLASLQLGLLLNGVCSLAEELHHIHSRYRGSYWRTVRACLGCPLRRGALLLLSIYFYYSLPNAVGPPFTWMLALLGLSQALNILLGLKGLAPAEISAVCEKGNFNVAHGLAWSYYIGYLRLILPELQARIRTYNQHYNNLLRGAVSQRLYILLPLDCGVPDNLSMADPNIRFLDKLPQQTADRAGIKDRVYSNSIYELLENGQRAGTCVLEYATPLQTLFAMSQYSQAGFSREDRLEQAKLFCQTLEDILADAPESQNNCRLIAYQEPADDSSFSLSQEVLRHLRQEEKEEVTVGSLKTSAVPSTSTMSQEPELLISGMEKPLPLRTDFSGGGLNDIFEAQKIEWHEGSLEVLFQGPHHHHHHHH
Text: The ability of compounds to bind STING is quantified by the ability to compete with tritiated cGAMP ligand for human STING receptor membrane using a radioactive filter-binding assay. The binding assay employs STING receptor obtained from Hi-Five cell membranes overexpressing full-length HAQ STING prepared in-house and tritiated cGAMP ligand also purified in-house.
(§1) The ability of compounds to bind STING is quantified by their ability to compete with tritiated cGAMP ligand for human STING receptor membrane using a radioactive filter-binding assay. The binding assay employs STING receptor obtained from Trichoplusia ni cell membranes (T. ni; Expression Systems, cat #94-002F, www.exressionsystems.com) overexpressing full-length HAQ STING and tritiated cGAMP ligand.
The basic HAQ STING filtration assay protocol is as follows:
Compound and membrane then preincubated for 60 min at RT to allow compound binding to equilibrate. Following equilibration, 8 nM of [^3H]c-GAMP ligand was prepared by diluting into assay buffer, and 50 uL of this working stock was then manually added to each well of the assay plate. […] The filter plates were then dried at 55° C. for 30 min using a pressurized oven before 30 uL of ULTIMA GOLD F scintillate was added to each well. Tritium levels for each reaction well were then measured using a PerkinElmer TopCount plate reader.
(§2) After normalization to controls, the percent activity for each compound concentration was calculated by measuring the amount of remaining radioactivity. The plot of percent activity versus the log of compound concentration was fit with a 4-parameter dose response equation to calculate EC50 values.

full-length WT STING = full-length WT STING (Homo sapiens (Human), UniProt Q86WV6, H232R); test: 3H-cGAMP filtration binding assay (WT STING); conditions: for pEC50: competition with tritiated cGAMP, WT STING membrane; for inhibition at 20 µM: WT STING, compound at 20 uM
full-length WT STING, sequence (Q86WV6 other isoform, or with tags, fused parts or gaps H232R (already in the parent)): as the sequence (Q86WV6 other isoform, or with tags, fused parts or gaps, stated change not applied) above, with H71R, A230G, Q293R counted along it
Text: as §1, with “www.expressionsystems.com)” for “www.exressionsystems.com)”, “WT” for “HAQ”
The basic WT STING filtration assay protocol is as follows:
The filter plates were then dried at 55° C. for 30 min using a pressurized VWR oven before 30 uL of ULTIMA GOLD F scintillate was added to each well. Tritium levels for each reaction well were then measured using a PerkinElmer TopCount plate reader.
as §2

| SMILES | pEC50 (full-length HAQ STING) | pEC50 (full-length WT STING) | inhibition at 20 µM (full-length WT STING) [%] | % Effect at 30 μM relative to 2’3’-cGAMP (THP1 cells) [%] |
| --- | --- | --- | --- | --- |
| COCC(CC(=O)c1cc2cc(OC)c(OC)cc2s1)C(=O)O (stereo not drawn) [Example 17, 4-(5,6-Dimethoxybenzo[b]thiophen-2-yl)-2-(methoxymethyl)-4-oxobutanoic acid] | 5.23 | 4.83 | – | 21 |
| C=Cc1cc2cc(C(=O)CCC(=O)O)sc2cc1OC [Example 18, 4-(6-Methoxy-5-vinylbenzo[b]thiophen-2-yl)-4-oxobutanoic acid] | 4.90 | – | 21 | 273 |
| COc1cc2sc(C(=O)CCC(=O)O)cc2cc1Br [Example 19, 4-(5-Bromo-6-methoxybenzo[b]thiophene-2-yl)-4-oxobutanoic acid] | 5.01 | – | 30 | 153 |
| C[C@@H](CC(=O)c1cc2cc(Cl)c(Cl)cc2s1)C(=O)O [Example 20] | 4.97 | – | 33 | 47 |
| CCc1cc2sc(C(=O)C[C@H](C)C(=O)O)cc2cc1OC [Example 21, (S)-4-(6-Ethyl-5-methoxybenzo[b]thiophen-2-yl)-2-methyl-4-oxobutanoic acid] | 5.20 | 4.84 | – | 162 |
| COc1cc2cc(C(=O)C[C@H](C)C(=O)O)sc2cc1C [Example 22, (S)-4-(5-methoxy-6-methylbenzo[b]thiophen-2-yl)-2-methyl-4-oxobutanoic acid] | 5.06 | 4.77 | – | 43 |
| COc1cc2cc(C(=O)CCC(=O)O)sc2cc1Cl [Example 23, 4-(6-Chloro-5-methoxybenzo[b]thiophen-2-yl)-4-oxobutanoic acid] | 5.22 | – | 37 | 191 |
| COc1cc2sc(C(=O)CCC(=O)O)c(Cl)c2cc1OC [Example 27, 4-(3-chloro-5,6-dimethoxybenzo[b]thiophen-2-yl)-4-oxobutanoic acid] | 4.88 | – | 19 | 14 |
| Cc1cc2cc(C(=O)C[C@H](C)C(=O)O)sc2cc1Br [Example 29, (S)-4-(6-bromo-5-methylbenzo[b]thiophen-2-yl)-2-methyl-4-oxobutanoic acid] | 4.86 | – | 16 | 9 |
| CCOc1cc2sc(C(=O)C[C@H](C)C(=O)O)cc2cc1Cl [Example 33, (S)-4-(5-chloro-6-ethoxybenzo[b]thiophen-2-yl)-2-methyl-4-oxobutanoic acid] | 5.19 | – | 30 | 25 |
| Cc1cc2sc(C(=O)C[C@H](C)C(=O)O)cc2cc1Br [Example 34, (S)-4-(5-bromo-6-methylbenzo[b]thiophen-2-yl)-2-methyl-4-oxobutanoic acid] | 4.98 | – | 18 | 34 |
| C#Cc1cc2cc(C(=O)CCC(=O)O)sc2cc1OC [Example 36, 4-(5-Ethynyl-6-methoxybenzo[b]thiophen-2-yl)-4-oxobutanoic acid] | 4.84 | – | 9 | 11 |
| C=Cc1cc2cc(C(=O)C[C@H](C)C(=O)O)sc2cc1OC [Example 41, (S)-4-(6-methoxy-5-vinylbenzo[b]thiophen-2-yl)-2-methyl-4-oxobutanoic acid] | 5.24 | 4.83 | – | 312 |
| COc1cc2cc(C(=O)C[C@H](C)C(=O)O)sc2cc1CCF [Example 46, (2S)-4-[6-(2-fluoroethyl)-5-methoxy-1-benzothiophen-2-yl]-2-methyl-4-oxobutanoic acid] | 5.13 | – | 24 | 205 |
| CCOC(=O)C(C)(O)CC(=O)c1cc2cc(OC)c(OC)cc2s1 (stereo not drawn) [Example 48, Ethyl 4-(5,6-dimethoxybenzo[b]thiophen-2-yl)-2-hydroxy-2-methyl-4-oxobutanoate] | 4.72 | – | 23 | 71 |
| COc1cc2sc(C(=O)[C@H]3C[C@H]3C(=O)O)cc2c(F)c1OC [Example 51, (1R,2S)-2-(4-fluoro-5,6-dimethoxybenzo[b]thiophene-2-carbonyl)cyclopropane-1-carboxylic acid] | 4.75 | – | 3 | 31 |
| COc1cc2cc(C(=O)CCC(=O)O)sc2cc1OC(F)F [Example 53, 4-(6-(difluoromethoxy)-5-methoxybenzo[b]thiophen-2-yl)-4-oxobutanoic acid] | 4.86 | – | 7 | 182 |

More lines, in order of rising pEC50 (full-length HAQ STING), values ahead:

| pEC50 (full-length HAQ STING) | pEC50 (full-length WT STING) | inhibition at 20 µM (full-length WT STING) [%] | SMILES | % Effect at 30 μM relative to 2’3’-cGAMP (THP1 cells) [%] |
| --- | --- | --- | --- | --- |
| 5.26 | 5.12 | – | COc1cc2cc(C(=O)CC(C)C(=O)O)sc2cc1OC (stereo not drawn) [Example 35, 4-(5,6-dimethoxybenzo[b]thiophen-2-yl)-2-methyl-4-oxobutanoic acid] | 57 |
| 5.30 | 4.73 | – | COc1cc2sc(C(=O)C[C@H](C)C(=O)O)cc2cc1F [Example 30, (S)-4-(5-fluoro-6-methoxybenzo[b]thiophen-2-yl)-2-methyl-4-oxobutanoic acid] | 15 |
| 5.44 | 4.77 | – | C[C@@H](CC(=O)c1cc2cc(Cl)c(Br)cc2s1)C(=O)O [Example 32, (S)-4-(6-bromo-5-chlorobenzo[b]thiophen-2-yl)-2-methyl-4-oxobutanoic acid] | 24 |
| 5.58 | 5.07 | – | COc1cc2sc(C(=O)C[C@H](C)C(=O)O)cc2cc1Br [Example 24, (S)-4-(5-Bromo-6-methoxybenzo[b]thiophen-2-yl)-2-methyl-4-oxobutanoic acid] | 214 |
| 5.71 | 5.03 | – | COc1cc2sc(C(=O)C[C@H](C)C(=O)O)cc2cc1Cl [Example 28, (S)-4-(5-chloro-6-methoxybenzo[b]thiophen-2-yl)-2-methyl-4-oxobutanoic acid] | 86 |
| 5.92 | 5.39 | – | COc1cc2cc(C(=O)C[C@H](C)C(=O)O)sc2cc1O [Example 43, (S)-4-(6-hydroxy-5-methoxybenzo[b]thiophen-2-yl)-2-methyl-4-oxobutanoic acid] | 56 |
| 6.05 | 5.67 | – | CCC(CC(=O)c1cc2c(F)c(OC)c(OC)cc2s1)C(=O)O (stereo not drawn) [Example 50, 2-ethyl-4-(4-fluoro-5,6-dimethoxybenzo[b]thiophen-2-yl)-4-oxobutanoic acid] | 115 |
| 6.22 | – | 101 | COc1cc2sc(C(=O)[C@@H]3C[C@@H]3C(=O)O)cc2c(F)c1OC [Example 52, (1S,2R)-2-(4-fluoro-5,6-dimethoxybenzo[b]thiophene-2-carbonyl)cyclopropane-1-carboxylic acid] | 142 |
